Literature values, collected in patent publication US20050148561A1, “Novel triterpene derivatives, preparation thereof and use thereof” (Panacos Pharmaceuticals, Inc., priority 2003, published 2005).
Where two headings read alike, the source gives them in different places.

Tested on: HIV-1

SMILES | T.I. (H9 lymphocyte cells) | EC50 (unit inferred, read-out: EC50, anti-HIV activity) [µM] | EC50 (H9 lymphocyte cells, read-out: EC50, inhibitory activity against HIV-1 replication) [µM]
CC(C)[C@@H]1CC[C@]2(C(=O)O)CC[C@]3(C)C(CCC4[C@@]5(C)CC[C@H](O)C(C)(C)C5CC[C@]43C)C12 (stereo partly shown) [dihydrobetulinic acid] | 14 | 0.9 | –
CC(=O)[C@@H]1CC[C@]2(C(=O)O)CC[C@]3(C)[C@H](CC[C@@H]4[C@@]5(C)CC[C@H](O)C(C)(C)[C@@H]5CC[C@]43C)[C@@H]12 [platanic acid] | 14 | – | 6.5
